Reference: ChEMBL document CHEMBL1201862, “PubChem BioAssay data set” (2004)
Calls of active or inactive are those of the source.

Assays:
[1] = target: T1, Tyrosine-protein phosphatase non-receptor type 7 (Homo sapiens, UniProt P35236); format: functional
T1 sequence (P35236 whole entry): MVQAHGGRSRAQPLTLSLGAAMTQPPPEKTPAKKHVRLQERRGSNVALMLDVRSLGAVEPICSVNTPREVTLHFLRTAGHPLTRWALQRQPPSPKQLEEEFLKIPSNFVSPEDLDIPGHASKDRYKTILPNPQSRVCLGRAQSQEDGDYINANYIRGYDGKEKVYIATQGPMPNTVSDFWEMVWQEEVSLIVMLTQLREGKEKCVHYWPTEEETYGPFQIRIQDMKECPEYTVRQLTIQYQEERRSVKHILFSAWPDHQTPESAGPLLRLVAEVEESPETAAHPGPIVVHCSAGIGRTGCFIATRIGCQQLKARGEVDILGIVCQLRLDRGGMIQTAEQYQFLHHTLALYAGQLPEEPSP

[2] = target: T2, Tyrosine-protein phosphatase non-receptor type 22 (Homo sapiens, UniProt Q9Y2R2); format: functional
T2 sequence (Q9Y2R2 whole entry): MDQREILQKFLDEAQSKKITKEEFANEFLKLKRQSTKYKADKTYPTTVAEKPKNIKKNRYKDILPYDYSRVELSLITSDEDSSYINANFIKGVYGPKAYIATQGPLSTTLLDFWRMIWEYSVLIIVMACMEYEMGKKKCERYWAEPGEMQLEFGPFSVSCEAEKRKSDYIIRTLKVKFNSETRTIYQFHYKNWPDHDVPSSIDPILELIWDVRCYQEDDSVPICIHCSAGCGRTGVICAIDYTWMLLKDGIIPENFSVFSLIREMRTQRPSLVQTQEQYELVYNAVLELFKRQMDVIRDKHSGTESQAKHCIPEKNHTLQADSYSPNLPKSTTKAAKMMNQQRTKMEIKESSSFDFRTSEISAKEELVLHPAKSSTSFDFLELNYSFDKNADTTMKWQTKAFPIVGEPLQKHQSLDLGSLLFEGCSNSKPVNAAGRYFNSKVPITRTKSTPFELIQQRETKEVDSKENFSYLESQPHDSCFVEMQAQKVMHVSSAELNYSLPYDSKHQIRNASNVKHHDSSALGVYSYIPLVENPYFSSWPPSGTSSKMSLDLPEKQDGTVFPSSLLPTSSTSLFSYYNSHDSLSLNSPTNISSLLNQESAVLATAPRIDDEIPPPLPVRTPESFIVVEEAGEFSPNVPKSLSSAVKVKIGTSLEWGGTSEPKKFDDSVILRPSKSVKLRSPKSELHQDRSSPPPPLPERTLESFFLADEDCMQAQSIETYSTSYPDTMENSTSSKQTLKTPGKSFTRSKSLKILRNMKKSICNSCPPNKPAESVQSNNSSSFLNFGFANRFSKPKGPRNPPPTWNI

[3] = target: T2, Tyrosine-protein phosphatase non-receptor type 22; format: functional; remark: listed apart in the source
[4] = insulin promoter down-regulators in MIN6 cells, imaging, high-content screening, mouse beta cells (AID 1628); format: functional
[5] = cytotoxicity in MIN6 insulinoma cells, dose response, cytotoxicity control, cell-based, mouse insulinoma (AID 2122); format: functional;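 also: confirmatory high-throughput counterscreen run to flag cytotoxic compounds; mouse MIN-6 beta cells carrying an insulin promoter eGFP reporter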
[6] = target: Intestinal-type alkaline phosphatase (Mus musculus, UniProt P24822); test: PubChem AID 488875; format: functional
[7] = target: T3, Intestinal-type alkaline phosphatase (Homo sapiens, UniProt P09923); test: human intestinal alkaline phosphatase activators, dose response, biochemical, luminescence, uHTS hits (AID 463120); format: functional
[8] = target: T3, Intestinal-type alkaline phosphatase; test: human IAP activators, dose response, biochemical, luminescent, uHTS hits, set 2 (AID 488817); format: functional;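 also: potency of activators that raise enzyme activity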
[9] = target: T4, Alkaline phosphatase, tissue-nonspecific isozyme (Homo sapiens, UniProt P05186); test: TNAP enzyme activators, dose response, selectivity assay for human IAP activator project, biochemical, TNAP isozyme, human IAP uHTS hits (AID 488886); format: functional;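 also: potency of compounds raising TNAP activity as a selectivity check on IAP activators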
T4 sequence (P05186 whole entry): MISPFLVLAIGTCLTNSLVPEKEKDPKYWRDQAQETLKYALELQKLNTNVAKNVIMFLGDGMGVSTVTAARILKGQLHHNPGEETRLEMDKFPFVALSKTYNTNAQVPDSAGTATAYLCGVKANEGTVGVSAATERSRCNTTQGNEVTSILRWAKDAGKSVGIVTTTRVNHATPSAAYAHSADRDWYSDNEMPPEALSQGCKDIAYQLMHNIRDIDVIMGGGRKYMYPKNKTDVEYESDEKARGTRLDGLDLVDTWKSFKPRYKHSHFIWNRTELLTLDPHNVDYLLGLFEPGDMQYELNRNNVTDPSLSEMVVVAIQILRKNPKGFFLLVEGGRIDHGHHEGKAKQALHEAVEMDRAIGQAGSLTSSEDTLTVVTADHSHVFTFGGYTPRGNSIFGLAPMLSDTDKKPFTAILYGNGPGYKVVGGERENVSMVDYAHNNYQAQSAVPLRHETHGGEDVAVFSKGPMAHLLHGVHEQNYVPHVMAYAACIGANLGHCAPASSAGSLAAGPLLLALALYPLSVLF

[10] = tested on: HEK293; test: NOD1 signaling inhibitors, primary screen, cell-based, luminescence, uHTS (AID 1578); format: functional; details: Homo sapiens
[11] = tested on: BJ; test: cytotoxicity toward BJ-TERT fibroblasts, dose response, cell-based, RAS-independent, luminescence (AID 1933); format: functional; details: Homo sapiens
[12] = tested on: HEK293; test: cells; format: functional, cell-based; details: Homo sapiens
[13] = tested on: BJ; test: cells; format: functional, cell-based; details: Homo sapiens
[14] = tested on: HEK293; test: cells; format: functional, cell-based; details: Homo sapiens; remark: listed apart in the source
[15] = target: Nucleotide-binding oligomerization domain-containing protein 2 (Homo sapiens, UniProt Q9HC29); test: NOD2 signaling inhibitors, cell-based, luminescence, uHTS, HEK293 (AID 1566); format: functional
[16] = tested on: HEK293; test: NOD2 signaling inhibitors in MDP-stimulated cells, cell-based, uHTS, luminescence (AID 2001); format: functional; details: Homo sapiens
[17] = tested on: HEK293; test: cells; format: functional, cell-based; details: Homo sapiens; remark: listed apart in the source
[18] = tested on: BJ; test: cytotoxicity toward BJ-TERT-LT-ST fibroblasts, dose response, cell-based, RAS-independent, luminescence (AID 1935); format: functional; details: Homo sapiens;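 also: BJ fibroblasts immortalized with TERT plus LT and ST oncogenes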
[19] = cytotoxicity toward DRD oncogenic fibroblasts, dose response, cell-based, non-viral oncogenic, luminescence (AID 1934); format: functional; details: Homo sapiens
[20] = target: G-protein coupled receptor 55 (Homo sapiens, UniProt Q9Y2T6); test: GPR55 agonists via beta-arrestin recruitment, primary screen, imaging, U2OS cells, beta-arrestin-GFP redistribution (AID 1961); format: functional
[21] = Luminescence Cell-Based Dose Retest to Confirm Inhibitors of Cancer Stem Cells. [Related pubchem assays (depositor defined):AID2717, AID2721]; format: functional; details: Homo sapiens
[22] = target: T5, Microphthalmia-associated transcription factor (Homo sapiens, UniProt O75030); test: TRPM1 promoter luciferase signal decrease, dose response, MITF inhibitor project, cell-based, SK-MEL-5, cherry-picked, set 3 (AID 493073); format: functional
T5 sequence (O75030 whole entry): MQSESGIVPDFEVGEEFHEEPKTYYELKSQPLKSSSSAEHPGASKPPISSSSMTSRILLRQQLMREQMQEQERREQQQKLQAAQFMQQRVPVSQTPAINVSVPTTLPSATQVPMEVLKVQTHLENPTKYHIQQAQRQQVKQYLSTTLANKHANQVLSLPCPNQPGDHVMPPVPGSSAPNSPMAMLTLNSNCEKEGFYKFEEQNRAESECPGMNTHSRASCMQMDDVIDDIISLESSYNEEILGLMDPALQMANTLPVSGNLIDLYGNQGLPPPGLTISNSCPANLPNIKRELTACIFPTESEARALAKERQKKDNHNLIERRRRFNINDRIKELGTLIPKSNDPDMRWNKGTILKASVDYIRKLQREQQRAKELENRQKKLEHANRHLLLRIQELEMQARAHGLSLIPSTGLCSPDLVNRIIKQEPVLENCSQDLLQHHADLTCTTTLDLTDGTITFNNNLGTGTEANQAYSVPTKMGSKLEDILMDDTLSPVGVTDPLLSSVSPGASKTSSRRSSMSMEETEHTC

[23] = target: Tumor necrosis factor (Homo sapiens, UniProt P01375); test: TNFa-triggered NF-kB activation inhibitors, SAR follow-up, cell-based, revised (AID 2337); format: functional
[24] = target: T6, Nucleotide-binding oligomerization domain-containing protein 1 (Homo sapiens, UniProt Q9Y239); test: NOD1 signaling inhibitors, SAR follow-up, revised (AID 2333); format: functional
T6 sequence (Q9Y239 whole entry): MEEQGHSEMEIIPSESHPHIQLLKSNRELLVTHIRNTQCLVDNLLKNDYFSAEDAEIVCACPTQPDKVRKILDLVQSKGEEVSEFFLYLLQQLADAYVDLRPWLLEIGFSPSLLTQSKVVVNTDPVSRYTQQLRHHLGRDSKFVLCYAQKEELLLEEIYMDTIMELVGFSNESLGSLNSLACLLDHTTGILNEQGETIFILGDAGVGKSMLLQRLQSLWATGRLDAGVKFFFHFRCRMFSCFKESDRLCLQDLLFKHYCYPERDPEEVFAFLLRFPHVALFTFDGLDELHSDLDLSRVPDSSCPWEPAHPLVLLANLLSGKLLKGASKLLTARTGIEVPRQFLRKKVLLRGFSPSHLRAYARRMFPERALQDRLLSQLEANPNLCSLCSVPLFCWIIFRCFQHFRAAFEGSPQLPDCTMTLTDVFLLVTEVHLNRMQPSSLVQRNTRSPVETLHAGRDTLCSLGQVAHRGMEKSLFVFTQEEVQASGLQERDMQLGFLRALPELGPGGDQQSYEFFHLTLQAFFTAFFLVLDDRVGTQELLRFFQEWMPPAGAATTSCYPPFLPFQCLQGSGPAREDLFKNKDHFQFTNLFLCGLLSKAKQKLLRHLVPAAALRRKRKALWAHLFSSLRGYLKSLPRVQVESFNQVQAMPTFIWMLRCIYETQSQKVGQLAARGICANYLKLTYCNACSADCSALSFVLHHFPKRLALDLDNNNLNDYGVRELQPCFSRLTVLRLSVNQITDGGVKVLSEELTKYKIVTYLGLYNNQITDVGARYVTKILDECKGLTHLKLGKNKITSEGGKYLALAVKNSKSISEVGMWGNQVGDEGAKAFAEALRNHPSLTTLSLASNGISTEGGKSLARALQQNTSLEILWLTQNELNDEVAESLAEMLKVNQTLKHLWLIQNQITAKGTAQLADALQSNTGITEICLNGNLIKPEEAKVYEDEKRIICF

[25] = tested on: HEK293; test: cells; details: Homo sapiens

T3 sequence (P09923 whole entry): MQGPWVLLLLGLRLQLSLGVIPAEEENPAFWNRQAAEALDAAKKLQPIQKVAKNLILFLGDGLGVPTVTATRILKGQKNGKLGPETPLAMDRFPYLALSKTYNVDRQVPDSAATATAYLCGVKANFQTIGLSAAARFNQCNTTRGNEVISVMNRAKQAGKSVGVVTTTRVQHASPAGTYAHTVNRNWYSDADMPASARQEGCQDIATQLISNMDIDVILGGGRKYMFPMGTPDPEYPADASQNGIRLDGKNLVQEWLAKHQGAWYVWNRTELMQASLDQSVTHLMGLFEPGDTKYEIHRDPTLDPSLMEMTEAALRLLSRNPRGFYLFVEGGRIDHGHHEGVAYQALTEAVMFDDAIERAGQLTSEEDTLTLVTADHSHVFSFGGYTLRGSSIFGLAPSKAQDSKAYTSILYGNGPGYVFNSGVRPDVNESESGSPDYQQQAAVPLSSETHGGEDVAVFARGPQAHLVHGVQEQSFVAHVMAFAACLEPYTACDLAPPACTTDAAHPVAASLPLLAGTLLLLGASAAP
Nucleotide-binding oligomerization domain-containing protein 2, sequence (Q9HC29 whole entry, the tested form may be a part): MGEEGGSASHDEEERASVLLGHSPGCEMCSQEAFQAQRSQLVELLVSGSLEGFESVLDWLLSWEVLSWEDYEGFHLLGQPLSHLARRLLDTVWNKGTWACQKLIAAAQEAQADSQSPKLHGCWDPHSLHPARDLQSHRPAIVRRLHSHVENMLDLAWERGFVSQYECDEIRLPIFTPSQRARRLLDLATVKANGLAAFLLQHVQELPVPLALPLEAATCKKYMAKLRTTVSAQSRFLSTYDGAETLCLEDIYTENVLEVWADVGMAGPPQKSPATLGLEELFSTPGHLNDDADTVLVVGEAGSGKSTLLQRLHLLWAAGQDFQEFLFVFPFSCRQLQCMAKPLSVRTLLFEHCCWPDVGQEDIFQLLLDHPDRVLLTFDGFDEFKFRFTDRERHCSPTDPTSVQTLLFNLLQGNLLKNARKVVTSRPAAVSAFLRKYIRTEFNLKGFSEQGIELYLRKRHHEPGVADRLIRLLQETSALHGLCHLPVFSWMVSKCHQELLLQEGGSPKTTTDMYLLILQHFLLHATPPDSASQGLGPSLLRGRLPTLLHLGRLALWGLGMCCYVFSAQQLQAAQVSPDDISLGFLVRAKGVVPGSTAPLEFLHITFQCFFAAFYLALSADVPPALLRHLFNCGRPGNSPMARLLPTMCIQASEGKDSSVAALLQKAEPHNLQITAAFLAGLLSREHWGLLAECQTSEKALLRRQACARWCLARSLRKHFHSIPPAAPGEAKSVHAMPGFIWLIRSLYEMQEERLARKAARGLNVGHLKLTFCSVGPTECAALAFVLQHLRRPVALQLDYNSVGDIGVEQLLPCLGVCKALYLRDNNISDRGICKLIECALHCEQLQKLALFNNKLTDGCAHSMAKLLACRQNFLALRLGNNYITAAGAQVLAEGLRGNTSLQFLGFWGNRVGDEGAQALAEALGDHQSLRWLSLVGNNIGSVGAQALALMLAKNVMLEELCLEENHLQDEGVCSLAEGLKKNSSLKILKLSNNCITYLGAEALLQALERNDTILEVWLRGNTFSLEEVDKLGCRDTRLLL
Intestinal-type alkaline phosphatase (Mus musculus, UniProt P24822), sequence (P24822 whole entry): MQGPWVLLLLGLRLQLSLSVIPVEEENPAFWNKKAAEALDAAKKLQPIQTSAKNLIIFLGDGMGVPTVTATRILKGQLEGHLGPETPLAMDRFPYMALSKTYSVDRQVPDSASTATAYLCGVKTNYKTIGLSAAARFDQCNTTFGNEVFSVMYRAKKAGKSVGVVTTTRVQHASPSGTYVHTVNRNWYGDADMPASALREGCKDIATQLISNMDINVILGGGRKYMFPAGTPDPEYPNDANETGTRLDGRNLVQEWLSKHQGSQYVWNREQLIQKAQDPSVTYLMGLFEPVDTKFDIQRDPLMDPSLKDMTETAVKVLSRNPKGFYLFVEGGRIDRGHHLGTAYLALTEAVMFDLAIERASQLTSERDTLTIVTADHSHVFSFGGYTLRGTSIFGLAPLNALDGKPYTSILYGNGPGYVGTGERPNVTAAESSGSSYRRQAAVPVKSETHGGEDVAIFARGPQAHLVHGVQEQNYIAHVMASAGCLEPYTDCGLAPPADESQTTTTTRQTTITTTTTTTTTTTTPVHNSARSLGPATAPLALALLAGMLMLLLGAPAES
G-protein coupled receptor 55, sequence (Q9Y2T6 whole entry): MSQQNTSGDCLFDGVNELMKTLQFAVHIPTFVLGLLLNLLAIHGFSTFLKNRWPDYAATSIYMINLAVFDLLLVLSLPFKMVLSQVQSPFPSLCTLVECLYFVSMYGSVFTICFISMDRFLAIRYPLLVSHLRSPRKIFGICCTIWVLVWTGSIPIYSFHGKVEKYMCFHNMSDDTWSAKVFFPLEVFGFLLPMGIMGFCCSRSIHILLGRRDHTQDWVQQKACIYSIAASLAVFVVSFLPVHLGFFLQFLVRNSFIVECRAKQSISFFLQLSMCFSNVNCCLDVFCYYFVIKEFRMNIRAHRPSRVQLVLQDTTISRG
Tumor necrosis factor, sequence (P01375 whole entry, the tested form may be a part): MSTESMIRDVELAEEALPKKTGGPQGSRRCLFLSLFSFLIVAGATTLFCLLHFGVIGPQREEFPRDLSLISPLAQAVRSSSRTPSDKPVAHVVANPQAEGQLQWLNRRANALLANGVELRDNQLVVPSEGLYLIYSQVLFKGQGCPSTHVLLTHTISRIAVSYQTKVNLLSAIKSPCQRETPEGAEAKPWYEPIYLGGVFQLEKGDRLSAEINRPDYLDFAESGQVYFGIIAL

For `CC12CCC(=O)N1c1ccccc1C(=O)N2c1ccccc1` (stereo unspecified), the IC50 [1] was > 79.4 µM (inactive), the IC50 [2] was > 79.4 µM (inactive) and the IC50 [3] was > 79.4 µM (inactive).
For `COc1ccc(NCc2nc3ccccc3n2CCOc2ccc(C)cc2)cc1`, the IC50 [4] was 2 µM (active) and the IC50 [5] was 4.54 µM (active).
With `Cc1nc(Nc2nc3c(c(=O)[nH]2)CCC3)nc2ccccc12` the EC50 [6] was > 100 µM (inactive), the EC50 [7] was 13.1 µM (active) and the EC50 [8] was 17.6 µM (active). The EC50 [9] was 26.1 µM (active).
With `O=C1NC(=O)N(Cc2ccccc2)C(=O)/C1=C/C=C/c1ccco1` the EC50 [10] was > 20 µM (inactive), the EC50 [11] was 5.74 µM (inconclusive) and the IC50 [12] was 17.5 µM (active). The EC50 [13] was 8.18 µM (active), the IC50 [14] was > 20 µM (inactive) and the EC50 [15] was > 20 µM (inactive). The IC50 [16] was > 20 µM (inactive), the IC50 [17] was > 20 µM (inactive) and the EC50 [18] was 4.14 µM (active). The EC50 [19] was 5.85 µM (inconclusive), the EC50 [20] was > 32 µM (inactive) and the AC50 [21] was 1.47 µM (active). The AC50 [22] was 4.85 µM (active).
In the case of `Cc1cccc(-n2ncc3c2CCCC3NC(=O)C2(C(N)=O)CC2)c1C` (stereo unspecified), the EC50 [10] is reported as 2.53 µM (active), the IC50 [12] is reported as 9.93 µM (active) and the IC50 [14] is reported as > 20 µM (inactive). The EC50 [15] was 19.7 µM (active), the IC50 [16] was 16.2 µM (inactive) and the IC50 [17] was > 20 µM (inactive). The IC50 [23] was 14.5 µM (active), the IC50 [24] was 4.31 µM (active) and the IC50 [25] was > 20 µM (inactive).
